The subject of data set [1] is Rattus norvegicus. Nature of the data set: Induction of hypothermia in cold-exposed Sprague-Dawley rat compound administered intracisternally measured 60 mins post dose relative to neurotensin. Format: functional.
For data set [2], the species on record is Rattus norvegicus. The data set is described as follows: Binding affinity to neurotensin receptor in rat mast cells at 1 ng to 10 ug after 15 mins relative to neurotensin. It is filed as cell-based.
The nature of data set [3]: Retention time of the compound in 0.01 M NH4OAc buffer at pH 4.5 by HPLC analysis. Format: physicochemical.

Experimental findings from ChEMBL document CHEMBL3272216 (J Med Chem, 1977) are described below.

Where a SMILES comes first, the peptide text is derived from it. Bridges are numbered along the chain shown (N, C = ends). [ ]: non-standard residue; d: D form. pGlu = O=C1CC[C@@H](C(=O)O)N1

As for `CC[C@H](C)[C@H](NC(=O)[C@@H](CCCCN)NC(=O)[C@@H]1CCCN1C(=O)[C@H](CCCNC(=N)N)NC(=O)[C@H](CCCNC(=N)N)NC(=O)[C@@H]1CCCN1C(=O)[C@H](CCCCN)NC(=O)[C@H](CC(N)=O)NC(=O)[C@H](CCC(=O)O)NC(=O)[C@H](Cc1ccc(O)cc1)NC(=O)[C@H](CC(C)C)NC(=O)[C@@H]1CCC(=O)N1)C(=O)N[C@@H](CC(C)C)C(=O)O`, the results for the Ratio with Rattus norvegicus [1] and in the data set filed under Rattus norvegicus [2] were less than 1 and 3.4, respectively. This compound also yielded a Retention_time in data set [3] of 6.4 min.
As to `CC[C@H](C)[C@H](NC(=O)[C@@H](CC(C)C)NC(=O)[C@@H]1CCCN1C(=O)[C@H](CCCNC(=N)N)NC(=O)[C@H](CCCNC(=N)N)NC(=O)[C@@H]1CCCN1C(=O)[C@H](CCCCN)NC(=O)[C@H](CC(N)=O)NC(=O)[C@H](CCC(=O)O)NC(=O)[C@H](Cc1ccc(O)cc1)NC(=O)[C@H](CC(C)C)NC(=O)[C@@H]1CCC(=O)N1)C(=O)N[C@@H](CC(C)C)C(=O)O`, the Ratio in the data set on Rattus norvegicus [1] was 30. In data set [3], this compound came in with a Retention_time of 5.2 min.
Consider `CC[C@@H](C)[C@H](NC(=O)[C@H](Cc1ccc(O)cc1)NC(=O)[C@@H]1CCCN1C(=O)[C@H](CCCNC(=N)N)NC(=O)[C@@H](N)CCCNC(=N)N)C(=O)N[C@@H](CC(C)C)C(=O)O`, for which the Ratio in the data set listed under Rattus norvegicus [2] worked out at 67.
Take `CC[C@H](C)[C@H](NC(=O)[C@H](Cc1ccc(O)cc1)NC(=O)[C@@H]1CCCN1C(=O)[C@H](CCCNC(=N)N)NC(=O)[C@@H](N)CCCNC(=N)N)C(=O)N[C@@H](CC(C)C)C(=O)O` [listing 1 of 2 here]: in the data set with Rattus norvegicus [1], the Ratio worked out at 25.
Take `CC[C@H](C)[C@H](NC(=O)[C@H](Cc1ccc(O)cc1)NC(=O)[C@@H]1CCCN1C(=O)[C@H](CCCNC(=N)N)NC(=O)[C@@H](N)CCCNC(=N)N)C(=O)N[C@@H](CC(C)C)C(=O)O` [listing 2 of 2 here]: the Retention_time in data set [3] came out at 8.2 min.
On the same count and under the same terms, the value for `CC[C@H](C)[C@H](NC(=O)[C@H](Cc1ccc(O)cc1)NC(=O)[C@@H]1CCCN1C(=O)[C@@H](N)CCCNC(=N)N)C(=O)N[C@@H](CC(C)C)C(=O)O` was 10.4 min.
For the compound `CC[C@H](C)[C@H](NC(=O)[C@@H](Cc1ccccc1)NC(=O)[C@@H]1CCCN1C(=O)[C@H](CCCN=C(N)N)NC(=O)[C@H](CCCN=C(N)N)NC(=O)[C@@H]1CCCN1C(=O)[C@H](CCCCN)NC(=O)[C@H](CC(N)=O)NC(=O)[C@H](CCC(=O)O)NC(=O)[C@H](Cc1ccc(O)cc1)NC(=O)[C@H](CC(C)C)NC(=O)[C@@H]1CCC(=O)N1)C(=O)N[C@@H](CC(C)C)C(=O)O`, the results for the Ratio in the data set on Rattus norvegicus [1] and in the data set filed under Rattus norvegicus [2] were 1000 and 0.64, respectively. Further, the Retention_time in data set [3] is 5.3 min.
With `CC[C@H](C)[C@H](NC(=O)[C@H](Cc1ccc(O)cc1)NC(=O)[C@@H]1CCCN1C(=O)[C@@H](N)CCCN=C(N)N)C(=O)N[C@@H](CC(C)C)C(=O)O`, the Ratio with Rattus norvegicus [1] was 20; in the data set filed under Rattus norvegicus [2] it was 76.
`CC[C@H](C)[C@H](NC(=O)[C@H](Cc1ccccc1)NC(=O)[C@@H]1CCCN1C(=O)[C@H](CCCN=C(N)N)NC(=O)[C@H](CCCN=C(N)N)NC(=O)[C@@H]1CCCN1C(=O)[C@H](CCCCN)NC(=O)[C@H](CC(N)=O)NC(=O)[C@H](CCC(=O)O)NC(=O)[C@H](Cc1ccc(O)cc1)NC(=O)[C@H](CC(C)C)NC(=O)[C@@H]1CCC(=O)N1)C(=O)N[C@@H](CC(C)C)C(=O)O`: the Ratio with Rattus norvegicus [1] and in the data set listed under Rattus norvegicus [2] was 100 in each case. Also, the Retention_time in data set [3] came out at 9.7 min.
In the case of `CC[C@H](C)[C@@H]1NC(=O)[C@H](Cc2ccc(O)cc2)NC(=O)[C@@H]2CCCN2C(=O)[C@H](CCCNC(=N)N)NC(=O)[C@H](CCCNC(=N)N)NC(=O)[C@@H]2CCCN2C(=O)[C@H](CCCCN)NC(=O)[C@H](CC(N)=O)NC(=O)[C@H](CCC(=O)O)NC(=O)[C@H](Cc2ccc(O)cc2)NC(=O)[C@@H](NC(=O)[C@@H]2CCC(=O)N2)CSSC[C@@H](C(=O)O)NC1=O` ([pGlu]CYENKPRRPYIC-OH; disulfide 2-13), the Ratio came to 100 in the data set on Rattus norvegicus [1] and 3.4 in the data set listed under Rattus norvegicus [2]. The same compound displayed a Retention_time in data set [3] of 5.3 min.
Taken in the same sequence, the figures for `CC[C@H](C)[C@H](NC(=O)[C@H](Cc1ccc(O)cc1)NC(=O)[C@@H]1CCCN1C(=O)[C@H](CCCNC(=N)N)NC(=O)[C@H](CCCNC(=N)N)NC(=O)[C@@H]1CCCN1C(=O)[C@H](CCCCN)NC(=O)[C@H](CC(N)=O)NC(=O)[C@H](CCC(=O)O)NC(=O)[C@H](Cc1ccccc1)NC(=O)[C@H](CC(C)C)NC(=O)[C@@H]1CCC(=O)N1)C(=O)N[C@@H](CC(C)C)C(=O)O` were 100, 102 and 4.9 min.
